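These data come from cells grown in 96-well plates and exposed to compound for 48 hours at five concentrations. GI50: concentration for 50% inhibition of growth. TGI: concentration producing complete growth inhibition.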
Legend:
Assay in all cases: growth of human tumour cells (NCI), 48 h
[1] = system: 786-0 renal
[2] = system: A498 renal
[3] = system: A549 NSCLC
[4] = system: ACHN renal
[5] = system: BT-549 breast
[6] = system: CAKI-1 renal
[7] = system: CCRF-CEM leukemia
[8] = system: COLO 205 colon
[9] = system: DU-145 prostate
[10] = system: EKVX NSCLC
[11] = system: HCC-2998 colon
[12] = system: HCT-116 colon
[13] = system: HCT-15 colon
[14] = system: HL-60(TB) leukemia
[15] = system: HOP-62 NSCLC
[16] = system: HOP-92 NSCLC
[17] = system: HS 578T breast
[18] = system: HT29 colon
[19] = system: IGROV1 ovarian
[20] = system: K-562 leukemia
[21] = system: KM12 colon
[22] = system: LOX IMVI melanoma
[23] = system: M14 melanoma
[24] = system: MALME-3M melanoma
[25] = system: MCF7 breast
[26] = system: MDA-MB-231 breast
[27] = system: MDA-MB-435
[28] = system: MOLT-4 leukemia
[29] = system: NCI-H226 lung
[30] = system: NCI-H23 lung
[31] = system: NCI-H460 lung
[32] = system: NCI-H522 lung
[33] = system: NCI/ADR-RES ovarian
[34] = system: OVCAR-3 ovarian
[35] = system: OVCAR-4 ovarian
[36] = system: OVCAR-5 ovarian
[37] = system: OVCAR-8 ovarian
[38] = system: PC-3 prostate
[39] = system: RPMI-8226 leukemia
[40] = system: RXF 393 renal
[41] = system: SF-268 CNS
[42] = system: SF-295 CNS
[43] = system: SF-539 CNS
[44] = system: SK-MEL-2 melanoma
[45] = system: SK-MEL-28 melanoma
[46] = system: SK-MEL-5 melanoma
[47] = system: SK-OV-3 ovarian
[48] = system: SN12C renal
[49] = system: SNB-19 CNS
[50] = system: SNB-75 CNS
[51] = system: SR leukemia
[52] = system: SW-620 colon
[53] = system: T-47D breast
[54] = system: TK-10 renal
[55] = system: U251 CNS
[56] = system: UACC-257 melanoma
[57] = system: UACC-62 melanoma
[58] = system: UO-31 renal

SMILES: NC(=O)c1ccc(Oc2nccc(-c3c(-c4ccc(F)cc4)ncn3C3CCNCC3)n2)cc1
- GI50 [1]: > 25 µM
- TGI [1]: > 25 µM
- GI50 [2]: > 18.2 µM
- TGI [2]: > 25 µM
- GI50 [3]: > 25 µM
- TGI [3]: > 25 µM
- GI50 [4]: > 25 µM
- TGI [4]: > 25 µM
- GI50 [5]: > 25 µM
- TGI [5]: > 25 µM
- GI50 [6]: > 25 µM
- TGI [6]: > 25 µM
- GI50 [7]: > 25 µM
- TGI [7]: > 25 µM
- GI50 [8]: > 25 µM
- TGI [8]: > 25 µM
- GI50 [9]: > 25 µM
- TGI [9]: > 25 µM
- GI50 [10]: > 25 µM
- TGI [10]: > 25 µM
- GI50 [11]: > 25 µM
- TGI [11]: > 25 µM
- GI50 [12]: > 25 µM
- TGI [12]: > 25 µM
- GI50 [13]: > 25 µM
- TGI [13]: > 25 µM
- GI50 [14]: > 25 µM
- TGI [14]: > 25 µM
- GI50 [15]: > 25 µM
- TGI [15]: > 25 µM
- GI50 [16]: > 25 µM
- TGI [16]: > 25 µM
- GI50 [17]: > 9.72 µM
- TGI [17]: > 25 µM
- GI50 [18]: > 25 µM
- TGI [18]: > 25 µM
- GI50 [19]: > 25 µM
- TGI [19]: > 25 µM
- GI50 [20]: > 25 µM
- TGI [20]: > 25 µM
- GI50 [21]: > 25 µM
- TGI [21]: > 25 µM
- GI50 [22]: > 25 µM
- TGI [22]: > 25 µM
- GI50 [23]: > 25 µM
- TGI [23]: > 25 µM
- GI50 [24]: > 25 µM
- TGI [24]: > 25 µM
- GI50 [25]: > 25 µM
- TGI [25]: > 25 µM
- GI50 [26]: > 25 µM
- TGI [26]: > 25 µM
- GI50 [27]: > 25 µM
- TGI [27]: > 25 µM
- GI50 [28]: > 25 µM
- TGI [28]: > 25 µM
- GI50 [29]: > 25 µM
- TGI [29]: > 25 µM
- GI50 [30]: > 25 µM
- TGI [30]: > 25 µM
- GI50 [31]: > 25 µM
- TGI [31]: > 25 µM
- GI50 [32]: > 25 µM
- TGI [32]: > 25 µM
- GI50 [33]: > 25 µM
- TGI [33]: > 25 µM
- GI50 [34]: > 25 µM
- TGI [34]: > 25 µM
- GI50 [35]: > 25 µM
- TGI [35]: > 25 µM
- GI50 [36]: > 25 µM
- TGI [36]: > 25 µM
- GI50 [37]: > 25 µM
- TGI [37]: > 25 µM
- GI50 [38]: > 25 µM
- TGI [38]: > 25 µM
- GI50 [39]: > 25 µM
- TGI [39]: > 25 µM
- GI50 [40]: > 25 µM
- TGI [40]: > 25 µM
- GI50 [41]: > 25 µM
- TGI [41]: > 25 µM
- GI50 [42]: > 25 µM
- TGI [42]: > 25 µM
- GI50 [43]: > 25 µM
- TGI [43]: > 25 µM
- GI50 [44]: > 25 µM
- TGI [44]: > 25 µM
- GI50 [45]: > 25 µM
- TGI [45]: > 25 µM
- GI50 [46]: > 25 µM
- TGI [46]: > 25 µM
- GI50 [47]: > 25 µM
- TGI [47]: > 25 µM
- GI50 [48]: > 25 µM
- TGI [48]: > 25 µM
- GI50 [49]: > 25 µM
- TGI [49]: > 25 µM
- GI50 [50]: > 25 µM
- TGI [50]: > 25 µM
- GI50 [51]: > 25 µM
- TGI [51]: > 25 µM
- GI50 [52]: > 25 µM
- TGI [52]: > 25 µM
- GI50 [53]: > 25 µM
- TGI [53]: > 25 µM
- GI50 [54]: > 25 µM
- TGI [54]: > 25 µM
- GI50 [55]: > 25 µM
- TGI [55]: > 25 µM
- GI50 [56]: > 25 µM
- TGI [56]: > 25 µM
- GI50 [57]: > 25 µM
- TGI [57]: > 25 µM
- GI50 [58]: > 25 µM
- TGI [58]: > 25 µM

— PubChem BioAssay (NCI)
